Experiments:
[1] = in vitro; settings: human, uninfected SupT1 cells
[2] = system: downmodulation of MHC-I molecules expressed on the surface of HIV infected SupT1 cells; test: cells; settings: for EC50: Human immunodeficiency virus 1, SUP-T1, read-out: EC50 for inhibition of MHC-I downmodulation utilizing the R1 parameter; for activity at 100 µM: Human immunodeficiency virus 1, SUP-T1, read-out: R1 @ 100 μM (R1 value for MHC-I downmodulation as % of the vehicle control)

SMILES	CC50 [1] [µM]	CC50 at 48 h [1] [µM]	EC50 [2] [µM]	activity at 100 µM [2] [%]
COc1ccc(NC(=O)COc2cccc3c2OC(C)(C)C3)nn1 [Compound 26, 2-((2,2-Dimethyl-2,3-dihydrobenzofuran-7-yl)oxy)-N-(6-methoxypyridazin-3-yl)acetamide]	> 100	> 100	> 25	53
CC1(C)Cc2cccc(OCC(=O)Nc3nccc(C(F)(F)F)n3)c2O1 [Compound 28, 2-((2,2-Dimethyl-2,3-dihydrobenzofuran-7-yl)oxy)-N-(4-(trifluoromethyl)pyrimidin-2-yl)acetamide]	> 100	> 100	> 25	80
Cc1nccc(NC(=O)COc2cccc3c2OC(C)(C)C3)n1 [Compound 29, 2-((2,2-Dimethyl-2,3-dihydrobenzofuran-7-yl)oxy)-N-(2-methylpyrimidin-4-yl)acetamide]	> 100	> 100	> 25	65
CC1(C)Cc2cccc(OCC(=O)Nc3cccc(Br)n3)c2O1 [Compound 30, N-(6-Bromopyridin-2-yl)-2-((2,2-dimethyl-2,3-dihydrobenzofuran-7-yl)oxy)acetamide]		> 125	20	
Cc1nc(N(Cc2ccccc2)C(=O)COc2cccc3c2OC(C)(C)C3)sc1C [Compound 31, N-Benzyl-2-((2,2-dimethyl-2,3-dihydrobenzofuran-7-yl)oxy)-N-(4,5-dimethylthiazol-2-yl)acetamide]		> 100	0.21	
CC1(C)Cc2cccc(OCC(=O)N(Cc3ccccc3)c3nc4c(F)cccc4s3)c2O1 [Compound 32, N-Benzyl-2-((2,2-dimethyl-2,3-dihydrobenzofuran-7-yl)oxy)-N-(4-fluorobenzo[d]thiazol-2-yl)acetamide]		> 100	0.009	
Cc1csc(N(Cc2ccccn2)C(=O)COc2cccc3c2OC(C)(C)C3)n1 [Compound 33, 2-((2,2-Dimethyl-2,3-dihydrobenzofuran-7-yl)oxy)-N-(4-methylthiazol-2-yl)-N-(pyridin-2-ylmethyl)acetamide]		> 100	0.18	
Cc1csc(N(Cc2cccnc2)C(=O)COc2cccc3c2OC(C)(C)C3)n1 [Compound 34, 2-((2,2-Dimethyl-2,3-dihydrobenzofuran-7-yl)oxy)-N-(4-methylthiazol-2-yl)-N-(pyridin-3-ylmethyl)acetamide]		12	1.4	
Cc1csc(N(Cc2ccncc2)C(=O)COc2cccc3c2OC(C)(C)C3)n1 [Compound 35, 2-((2,2-Dimethyl-2,3-dihydrobenzofuran-7-yl)oxy)-N-(4-methylthiazol-2-yl)-N-(pyridin-4-ylmethyl)acetamide]		> 100	1.42	
Cc1ccc(N(Cc2ccccc2)C(=O)COc2cccc3c2OC(C)(C)C3)nn1 [Compound 36, N-Benzyl-2-((2,2-dimethyl-2,3-dihydrobenzofuran-7-yl)oxy)-N-(6-methylpyridazin-3-yl)acetamide]		> 100	23.6	
CC1(C)Cc2cccc(OCC(=O)N(Cc3ccccc3)c3nc4c(s3)CCCC4)c2O1 [Compound 37, N-Benzyl-2-((2,2-dimethyl-2,3-dihydrobenzofuran-7-yl)oxy)-N-(4,5,6,7-tetrahydrobenzo[d]thiazol-2-yl)acetamide]		0.15	0.002	
CC1(C)Cc2cccc(OCC(=O)N(Cc3ccccn3)c3nc4c(s3)CCCC4)c2O1 [Compound 38, 2-((2,2-Dimethyl-2,3-dihydrobenzofuran-7-yl)oxy)-N-(pyridin-2-ylmethyl)-N-(4,5,6,7-tetrahydrobenzo[d]thiazol-2-yl)acetamide]		0.25	0.006	
Cc1cccc(CN(C(=O)COc2cccc3c2OC(C)(C)C3)c2nc3c(s2)CCCC3)n1 [Compound 39, 2-((2,2-Dimethyl-2,3-dihydrobenzofuran-7-yl)oxy)-N-((6-methylpyridin-2-yl)methyl)-N-(4,5,6,7-tetrahydrobenzo[d]thiazol-2-yl)acetamide]		> 100	0.02	
Cc1ccnc(CN(C(=O)COc2cccc3c2OC(C)(C)C3)c2nc3c(s2)CCCC3)c1 [Compound 41, 2-((2,2-Dimethyl-2,3-dihydrobenzofuran-7-yl)oxy)-N-((4-methylpyridin-2-yl)methyl)-N-(4,5,6,7-tetrahydrobenzo[d]thiazol-2-yl)acetamide]		> 125	0.02	
Cc1cccnc1CN(C(=O)COc1cccc2c1OC(C)(C)C2)c1nc2c(s1)CCCC2 [Compound 42, 2-((2,2-Dimethyl-2,3-dihydrobenzofuran-7-yl)oxy)-N-((3-methylpyridin-2-yl)methyl)-N-(4,5,6,7-tetrahydrobenzo[d]thiazol-2-yl)acetamide]		> 125	7.3	
Cc1csc(N(Cc2ncccn2)C(=O)COc2cccc3c2OC(C)(C)C3)n1 [Compound 43, 2-((2,2-Dimethyl-2,3-dihydrobenzofuran-7-yl)oxy)-N-(4-methylthiazol-2-yl)-N-(pyrimidin-2-ylmethyl)acetamide]		> 100	0.71	
CC1(C)Cc2cccc(OCC(=O)N(Cc3ncccn3)c3nc4c(s3)CCCC4)c2O1 [Compound 44, 2-((2,2-Dimethyl-2,3-dihydrobenzofuran-7-yl)oxy)-N-(pyrimidin-2-ylmethyl)-N-(4,5,6,7-tetrahydrobenzo[d]thiazol-2-yl)acetamide]		> 125	0.033	
CC1(C)Cc2cccc(OCC(=O)N(Cc3ccccn3)c3nc4c(F)cccc4s3)c2O1 [Compound 45, 2-((2,2-Dimethyl-2,3-dihydrobenzofuran-7-yl)oxy)-N-(4-fluorobenzo[d]thiazol-2-yl)-N-(pyridin-2-ylmethyl)acetamide]		> 100	0.51	
Cn1ccnc1CN(C(=O)COc1cccc2c1OC(C)(C)C2)c1nc2c(s1)CCCC2 [Compound 46, 2-((2,2-Dimethyl-2,3-dihydrobenzofuran-7-yl)oxy)-N-((1-methyl-1H-imidazol-2-yl)methyl)-N-(4,5,6,7-tetrahydrobenzo[d]thiazol-2-yl)acetamide]		> 125	0.059	
Cc1ccc(CN(C(=O)COc2cccc3c2OC(C)(C)C3)c2ccc(C)cn2)cc1 [Compound 47, 2-((2,2-Dimethyl-2,3-dihydrobenzofuran-7-yl)oxy)-N-(4-methylbenzyl)-N-(5-methylpyridin-2-yl)acetamide]		> 125	5.5	
Cc1ccc(N(Cc2ccccn2)C(=O)COc2cccc3c2OC(C)(C)C3)nc1 [Compound 48, 2-((2,2-Dimethyl-2,3-dihydrobenzofuran-7-yl)oxy)-N-(5-methylpyridin-2-yl)-N-(pyridin-2-ylmethyl)acetamide]		> 100	21	
Cc1ccc(CN(C(=O)COc2cccc3c2OC(C)(C)C3)c2ccc(C)cn2)nc1 [Compound 49, 2-((2,2-Dimethyl-2,3-dihydrobenzofuran-7-yl)oxy)-N-(5-methylpyridin-2-yl)-N-((5-methylpyridin-2-yl)methyl)acetamide]		> 125	3.1	
Cc1csc(N(CCc2ccccc2)C(=O)COc2cccc3c2OC(C)(C)C3)n1 [Compound 50, 2-((2,2-Dimethyl-2,3-dihydrobenzofuran-7-yl)oxy)-N-(4-methylthiazol-2-yl)-N-phenethylacetamide]		> 125	14	

Reference: patent publication US20220411419A1, “SMALL MOLECULE MODULATORS OF MHC-I” (RetroVirox, Inc., priority 2018, published 2022)
